Biological target: T1, PlaF (Pseudomonas aeruginosa, UniProt G3XCU7)
T1 construct: gene PA2949; purified PlaF (pBBR-plaFH6, His-tagged) reconstituted into phospholipid liposomes
Experiment: p-NPB esterase assay with purified PlaF; Michaelis-Menten kinetics (Km increased, vmax unchanged)
Format: biochemical

T1 sequence (G3XCU7 entry or part of it): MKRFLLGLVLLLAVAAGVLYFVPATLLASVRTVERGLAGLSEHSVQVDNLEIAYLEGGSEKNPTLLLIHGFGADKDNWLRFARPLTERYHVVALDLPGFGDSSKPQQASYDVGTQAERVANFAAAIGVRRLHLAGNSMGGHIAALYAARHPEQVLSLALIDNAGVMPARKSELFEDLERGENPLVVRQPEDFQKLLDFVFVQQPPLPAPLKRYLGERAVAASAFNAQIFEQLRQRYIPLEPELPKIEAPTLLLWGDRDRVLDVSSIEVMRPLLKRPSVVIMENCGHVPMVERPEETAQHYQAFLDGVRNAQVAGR

Row | Compound | inhibition at 400 µM | inhibition at 69.2 µM
1 | CCN(CC)CCN(Cc1ccc(-c2ccc(C(F)(F)F)cc2)cc1)C(=O)Cn1c(SCc2ccc(F)cc2)nc(=O)c2c1CCC2 [darapladib] | ~50% | –
2 | COCCN1CCC(N(Cc2ccc(-c3ccc(C(F)(F)F)cc3)cc2)C(=O)Cn2c(SCc3cccc(F)c3F)cc(=O)c3ccccc32)CC1 [rilapladib] | ~50% | –
3 | O=C(/C=C/c1ccc(/C=C/C(=O)Nc2ccc(C3=NCCN3)cc2)cc1)Nc1ccc(C2=NCCN2)cc1 [GW4869] | – | ~30%

— publication PMC12955470, “A novel approach to combat Pseudomonas aeruginosa: repurposing pharmaceuticals for inhibition of phospholipase A” (Microbiology Spectrum, 2026)
